# Assay results: BindingDB's records for doi:10.1124/jpet.105.085829 (Duquesne University, 2005)
# pKi: −log10 of the molar value. Where “and” joins values, the source holds several entries; their conditions need not be identical. Equal values may be shown once.
# Biological target: Sodium-dependent dopamine transporter (Rattus norvegicus, UniProt P23977)
# Sequence (P23977 whole entry): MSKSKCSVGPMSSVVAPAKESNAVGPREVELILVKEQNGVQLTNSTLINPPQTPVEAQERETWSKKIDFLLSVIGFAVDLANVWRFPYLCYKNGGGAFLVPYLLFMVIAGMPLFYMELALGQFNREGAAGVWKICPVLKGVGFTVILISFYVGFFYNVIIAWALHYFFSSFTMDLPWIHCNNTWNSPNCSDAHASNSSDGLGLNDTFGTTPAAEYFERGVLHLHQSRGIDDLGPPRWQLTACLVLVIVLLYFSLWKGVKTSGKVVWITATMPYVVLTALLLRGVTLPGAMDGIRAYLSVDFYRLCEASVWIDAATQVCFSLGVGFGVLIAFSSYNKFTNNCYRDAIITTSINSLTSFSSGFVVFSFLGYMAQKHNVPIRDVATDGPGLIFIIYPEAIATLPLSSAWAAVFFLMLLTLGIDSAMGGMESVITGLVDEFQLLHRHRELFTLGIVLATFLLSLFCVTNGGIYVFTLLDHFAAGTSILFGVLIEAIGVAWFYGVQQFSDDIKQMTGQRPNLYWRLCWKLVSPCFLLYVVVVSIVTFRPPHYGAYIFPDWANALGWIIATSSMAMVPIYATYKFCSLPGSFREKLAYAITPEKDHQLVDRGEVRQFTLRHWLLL
row,Structure (SMILES),pKi
1,COC(=O)[C@@H]1CN(C)CC[C@@H]1c1ccc(Cl)cc1 [4-ARA-127],5.79 and 5.48
2,CN1C2CCC1CC(OC(c1ccccc1)c1ccc(C(F)(F)F)cc1)C2 (stereo unspecified) [8-Methyl-3-[phenyl-(4-trifluoromethyl-phenyl)-methoxy]-8-aza-bicyclo[3.2.1]octane],5.89 and 6.27
3,COC(=O)C1C2CCC(C[C@@H]1OC(=O)c1ccccc1)O2 (stereo partly specified) [8-Oxa-norcocaine],5.01 and 5.81
4,"CC1CN(CCCn2c3ccccc3c3ccccc32)CC(C)N1 (stereo unspecified) [9-[3-(3,5-dimethylpiperazin-1-yl)propyl]-9H-carbazole]",6.19 and 6.74
5,O[C@]1(c2ccc(Cl)cc2)c2ccccc2C2=NCCN21 [Mazanor],7.51 and 7.89
6,"O=CN1C2CCC1CC(OC(c1ccc(F)cc1)c1ccc(F)cc1)C2 (stereo unspecified) [N-CHO-4,4'-diFBZT]",< 5.00
